What was measured:
[1] = biological target: T1, Amine oxidase [flavin-containing] B (Rattus norvegicus, UniProt P19643); experiment: Inhibition of MAO-B in mitochondria-enriched Sprague-Dawley rat liver fractions using p-tyramine as substrate incubated for 30 mins prior to substrate addition measured for 45 mins by amplex red reagent-based microplate fluorescence reader analysis
T1 sequence (P19643 whole entry): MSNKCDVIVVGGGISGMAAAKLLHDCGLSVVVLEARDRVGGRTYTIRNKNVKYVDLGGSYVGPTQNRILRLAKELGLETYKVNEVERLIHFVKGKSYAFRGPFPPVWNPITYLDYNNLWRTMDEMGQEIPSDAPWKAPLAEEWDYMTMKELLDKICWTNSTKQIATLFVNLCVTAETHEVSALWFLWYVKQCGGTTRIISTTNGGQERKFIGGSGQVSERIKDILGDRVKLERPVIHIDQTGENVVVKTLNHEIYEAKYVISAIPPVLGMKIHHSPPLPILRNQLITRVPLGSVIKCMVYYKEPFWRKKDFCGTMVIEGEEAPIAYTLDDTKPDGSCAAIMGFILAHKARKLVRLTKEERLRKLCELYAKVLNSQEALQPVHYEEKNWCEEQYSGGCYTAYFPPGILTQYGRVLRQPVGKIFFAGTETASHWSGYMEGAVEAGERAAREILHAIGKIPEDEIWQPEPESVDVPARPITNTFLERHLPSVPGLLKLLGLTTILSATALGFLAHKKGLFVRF

Adenosine receptor A3 = biological target: T2, Adenosine receptor A3 (Homo sapiens, UniProt P0DMS8); experiment: Displacement of [3H]PSB-11 from human recombinant adenosine A3 receptor expressed in CHO cells after 60 mins by liquid scintillation counting analysis; assay type: cell-based
T2 sequence (P0DMS8 whole entry): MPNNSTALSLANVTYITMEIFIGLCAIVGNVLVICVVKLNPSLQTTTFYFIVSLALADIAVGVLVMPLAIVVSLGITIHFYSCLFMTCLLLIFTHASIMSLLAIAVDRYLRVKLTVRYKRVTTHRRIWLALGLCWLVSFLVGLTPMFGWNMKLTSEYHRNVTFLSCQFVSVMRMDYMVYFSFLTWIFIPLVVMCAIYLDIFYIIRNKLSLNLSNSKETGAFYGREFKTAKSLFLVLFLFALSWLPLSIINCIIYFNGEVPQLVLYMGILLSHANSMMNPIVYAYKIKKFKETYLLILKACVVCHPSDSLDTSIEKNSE

Adenosine receptor A1 [2] = biological target: T3, Adenosine receptor A1 (Homo sapiens, UniProt P30542); experiment: Displacement of [3H]CCPA from human recombinant adenosine A1 receptor expressed in CHO cells after 90 mins by liquid scintillation counting analysis; assay type: cell-based
T3 sequence (P30542 whole entry): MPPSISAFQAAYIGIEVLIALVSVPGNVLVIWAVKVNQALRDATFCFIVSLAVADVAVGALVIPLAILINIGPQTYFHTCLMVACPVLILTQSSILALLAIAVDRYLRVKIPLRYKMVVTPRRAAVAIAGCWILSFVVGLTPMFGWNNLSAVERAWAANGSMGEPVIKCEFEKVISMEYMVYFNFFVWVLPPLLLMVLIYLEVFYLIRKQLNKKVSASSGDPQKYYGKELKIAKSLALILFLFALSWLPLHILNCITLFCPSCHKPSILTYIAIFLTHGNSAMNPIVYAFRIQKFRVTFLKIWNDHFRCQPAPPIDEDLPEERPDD

Adenosine receptor A2a [3] = biological target: Adenosine receptor A2a (Homo sapiens, UniProt P29274); experiment: Displacement of [3H]MSX2 from human recombinant adenosine A2A receptor expressed in CHO cells after 30 mins by liquid scintillation counting analysis; assay type: cell-based
Chain of Adenosine receptor A2a (Homo sapiens, UniProt P29274) (P29274 whole entry): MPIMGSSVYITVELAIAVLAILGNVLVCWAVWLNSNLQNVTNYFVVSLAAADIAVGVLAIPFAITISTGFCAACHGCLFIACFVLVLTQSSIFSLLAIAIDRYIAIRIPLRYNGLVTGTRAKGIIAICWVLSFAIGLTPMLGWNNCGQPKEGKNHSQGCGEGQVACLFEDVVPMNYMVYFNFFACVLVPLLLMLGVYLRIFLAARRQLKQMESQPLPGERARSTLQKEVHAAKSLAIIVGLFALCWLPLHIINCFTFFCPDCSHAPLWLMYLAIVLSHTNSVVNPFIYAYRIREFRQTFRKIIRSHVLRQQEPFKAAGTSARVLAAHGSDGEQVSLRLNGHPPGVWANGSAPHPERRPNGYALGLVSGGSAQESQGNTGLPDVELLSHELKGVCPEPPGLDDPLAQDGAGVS

Adenosine receptor A2a [4] = biological target: Adenosine receptor A2a (Rattus norvegicus, UniProt P30543); experiment: Displacement of [3H]MSX2 from adenosine A2A receptor in rat brain striatal membranes after 30 mins by liquid scintillation counting analysis; assay type: cell membranes, Membrane
Chain of Adenosine receptor A2a (Rattus norvegicus, UniProt P30543) (P30543 whole entry): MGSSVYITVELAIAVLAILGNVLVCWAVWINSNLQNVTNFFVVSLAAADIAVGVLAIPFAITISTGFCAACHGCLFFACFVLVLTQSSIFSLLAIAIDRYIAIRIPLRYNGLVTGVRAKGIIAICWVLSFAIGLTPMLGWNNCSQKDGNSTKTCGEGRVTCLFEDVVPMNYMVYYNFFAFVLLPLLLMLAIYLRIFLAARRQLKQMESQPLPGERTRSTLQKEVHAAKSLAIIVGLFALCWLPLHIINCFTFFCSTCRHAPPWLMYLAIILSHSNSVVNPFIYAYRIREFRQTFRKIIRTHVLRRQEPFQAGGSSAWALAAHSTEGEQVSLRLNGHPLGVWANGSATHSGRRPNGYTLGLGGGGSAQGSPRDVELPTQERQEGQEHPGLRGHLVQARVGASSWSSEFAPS

[5] = Selectivity ratio of IC50 for MAO-B in mitochondria-enriched Sprague-Dawley rat liver fractions to IC50 for recombinant human MAO-B
Adenosine receptor A1 [6] = biological target: T4, Adenosine receptor A1 (Rattus norvegicus, UniProt P25099); experiment: Displacement of [3H]CCPA from adenosine A1 receptor in rat brain cortical membranes after 90 mins by liquid scintillation counting analysis; assay type: cell membranes, Membrane
T4 sequence (P25099 whole entry): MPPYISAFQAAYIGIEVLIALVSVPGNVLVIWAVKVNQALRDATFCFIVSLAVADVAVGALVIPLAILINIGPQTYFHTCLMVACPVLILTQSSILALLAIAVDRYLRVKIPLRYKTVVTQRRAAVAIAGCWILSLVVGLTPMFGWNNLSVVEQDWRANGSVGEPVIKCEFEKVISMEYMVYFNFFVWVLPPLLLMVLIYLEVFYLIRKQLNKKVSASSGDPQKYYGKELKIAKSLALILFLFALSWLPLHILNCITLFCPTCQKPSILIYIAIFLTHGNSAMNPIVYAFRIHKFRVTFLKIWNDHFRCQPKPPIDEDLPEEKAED

[7] = biological target: T5, Amine oxidase [flavin-containing] B (Homo sapiens, UniProt P27338); experiment: Inhibition of recombinant human MAO-B expressed in baculovirus-infected insect cells using p-tyramine as substrate incubated for 30 mins prior to substrate addition measured for 45 mins by amplex red reagent-based microplate fluorescence reader analysis; assay type: cell-based
T5 sequence (P27338 whole entry): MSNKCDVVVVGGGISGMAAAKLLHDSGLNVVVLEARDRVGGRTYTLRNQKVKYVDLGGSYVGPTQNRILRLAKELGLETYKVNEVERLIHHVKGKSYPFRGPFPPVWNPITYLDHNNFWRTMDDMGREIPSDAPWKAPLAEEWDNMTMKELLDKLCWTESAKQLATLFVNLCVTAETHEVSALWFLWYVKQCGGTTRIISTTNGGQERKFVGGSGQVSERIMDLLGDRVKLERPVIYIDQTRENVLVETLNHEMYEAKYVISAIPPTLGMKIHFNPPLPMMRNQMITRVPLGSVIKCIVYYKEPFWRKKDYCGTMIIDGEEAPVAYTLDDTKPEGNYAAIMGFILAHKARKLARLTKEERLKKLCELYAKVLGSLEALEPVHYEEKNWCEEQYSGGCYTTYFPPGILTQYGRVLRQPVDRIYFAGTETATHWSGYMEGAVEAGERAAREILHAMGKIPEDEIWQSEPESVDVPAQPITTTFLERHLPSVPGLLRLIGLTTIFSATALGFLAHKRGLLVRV

Adenosine receptor A2b = biological target: T6, Adenosine receptor A2b (Homo sapiens, UniProt P29275); experiment: Displacement of [3H]PSB-603 from human recombinant adenosine A2B receptor expressed in CHO cells after 75 mins by liquid scintillation counting analysis; assay type: cell-based
T6 sequence (P29275 whole entry): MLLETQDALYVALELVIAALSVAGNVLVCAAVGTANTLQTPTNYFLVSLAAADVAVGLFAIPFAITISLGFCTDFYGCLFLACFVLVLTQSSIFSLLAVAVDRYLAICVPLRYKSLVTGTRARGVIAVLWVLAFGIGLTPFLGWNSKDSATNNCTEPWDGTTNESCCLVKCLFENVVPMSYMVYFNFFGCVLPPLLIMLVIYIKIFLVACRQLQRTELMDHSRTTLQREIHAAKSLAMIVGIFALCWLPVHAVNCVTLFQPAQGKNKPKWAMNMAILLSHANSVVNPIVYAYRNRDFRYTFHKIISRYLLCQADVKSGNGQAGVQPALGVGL

[8] = Selectivity ratio of Ki for human recombinant adenosine A1 receptor to Ki for adenosine A1 receptor in rat brain cortical membranes; assay type: cell membranes; conditions: Membrane
Homo sapiens [9] = species on record: Homo sapiens; experiment: Selectivity ratio of Ki for human recombinant adenosine A3 receptor to Ki for human recombinant adenosine A2A receptor
[10] = Selectivity ratio of Ki for adenosine A2A receptor in rat brain striatal membranes to Ki for human recombinant adenosine A2A receptor; assay type: cell membranes; conditions: Membrane
Homo sapiens [11] = species on record: Homo sapiens; experiment: Selectivity ratio of Ki for human recombinant adenosine A1 receptor to Ki for human recombinant adenosine A2A receptor
Homo sapiens [12] = species on record: Homo sapiens; experiment: Selectivity ratio of Ki for human recombinant adenosine A2B receptor to Ki for human recombinant adenosine A2A receptor
[13] = biological target: T5, Amine oxidase [flavin-containing] B; experiment: Reversible inhibition of human MAO-B using p-tyramine as substrate at IC80 incubated for 22 mins followed by substrate addition measured for 5 hrs by fluorescence assay

Row | SMILES | IC50 [1] [nM] | Ki (Adenosine receptor A3) [nM] | Ki (Adenosine receptor A1 [2]) [nM] | Ki (Adenosine receptor A2a [3]) [nM] | Ki (Adenosine receptor A2a [4]) [nM] | Ratio IC50 [5] | Ki (Adenosine receptor A1 [6]) [nM] | IC50 [7] [nM] | Ki (Adenosine receptor A2b) [nM] | Ratio Ki [8] | Ratio Ki (Homo sapiens [9]) | Ratio Ki [10] | Ratio Ki (Homo sapiens [11]) | Ratio Ki (Homo sapiens [12]) | inhibition (INH) [13]
1 | COCCOc1ccc(N2CCN(CCn3ncc4c3nc(N)n3nc(-c5ccco5)nc43)CC2)cc1 [PRELADENANT] |  | > 1000 | 295 | 0.884 | 0.66 |  | 68.7 |  | > 1000 |  |  |  |  |  | 
2 | O=C(CCCc1ccccc1)Nc1nc2sccc2c(=O)s1 | 291 | > 1000 | 364 | 82.5 | 693 | 1.4 | 35.2 | 69.7 | 361 |  | 12 |  | 4 | 4 | Active
3 | C[C@H](NCc1ccc(OCc2cccc(F)c2)cc1)C(N)=O [SAFINAMIDE] | 25.8 |  |  |  |  |  |  |  |  |  |  |  |  |  | Active
4 | O=C(Nc1nc2ccccc2c(=O)s1)c1ccc(C(=O)N2CCN(Cc3ccccc3Cl)CC2)cc1 |  | > 1000 | > 1000 | > 1000 | > 10000 | 1.4 |  | > 10000 | > 1000 |  |  |  |  |  | 
5 | O=C(CCc1ccccc1)Nc1nc2ccccc2c(=O)s1 | 42.7 | 390 | 1050 | 80.9 | 103 | 1.4 | 422 | 17.6 | 365 |  | 5 |  | 13 | 5 | Active
6 | O=C(Nc1nc2ccccc2c(=O)s1)c1ccc(C(=O)N2CCN(Cc3ccc(Cl)cc3)CC2)cc1 |  | > 1000 | 4370 | 44.3 | 488 | 1.4 |  | > 10000 | > 1000 |  | > 22 |  | 100 | > 22 | 

More lines, now with the values ahead:

Row | IC50 [1] [nM] | Ki (Adenosine receptor A3) [nM] | Ki (Adenosine receptor A1 [2]) [nM] | Ki (Adenosine receptor A2a [3]) [nM] | Ki (Adenosine receptor A2a [4]) [nM] | Ratio IC50 [5] | Ki (Adenosine receptor A1 [6]) [nM] | IC50 [7] [nM] | Ki (Adenosine receptor A2b) [nM] | Ratio Ki [8] | Ratio Ki (Homo sapiens [9]) | Ratio Ki [10] | Ratio Ki (Homo sapiens [11]) | Ratio Ki (Homo sapiens [12]) | inhibition (INH) [13] | SMILES
7 | 2020 | 115 | 500 | 91.8 | 317 | 1.4 | 11.2 | 238 | ≥ 1000 | < 45 |  |  |  |  |  | COc1cccc(/C=C/CC(=O)Nc2nc3ccccc3c(=O)s2)c1
8 | 840 | > 1000 | 562 |  | ≥ 10000 | 1.4 | 11.4 | > 1000 | > 1000 | < 45 |  |  |  |  |  | O=C(C/C=C/c1cccc(Cl)c1)Nc1nc2ccccc2c(=O)s1
9 | 621 | 173 | 1370 | 64.9 | 294 | 1.4 | 367 | 95.3 | 225 |  | 3 | > 4 | 21 | 4 | Active | COc1cccc(CCC(=O)Nc2nc3ccccc3c(=O)s2)c1
10 | 1300 | 382 | 214 | 115 | 558 | 1.4 | 22.5 | 389 | 302 |  |  |  |  |  |  | COc1cccc(CCCC(=O)Nc2nc3ccccc3c(=O)s2)c1
11 | 361 | 158 | 822 | 118 | 814 | 1.4 | 53 | 39.8 | 119 |  |  |  |  |  |  | O=C(C/C=C/c1ccccc1)Nc1nc2ccccc2c(=O)s1
12 | 281 | > 1000 | > 10000 | 62.4 | 253 |  | 205 | 470 | 679 |  | > 16 |  |  | 10 |  | COc1cccc(/C=C/C(=O)Nc2nc3ccccc3c(=O)s2)c1
